Read-outs that look alike come from different tables or passages of the source.
How the values were obtained:
NAT = settings: cited from earlier work
non-APL AML blast cells = settings: blasts from more than half of 23 non-APL AML patients; cited from earlier work
CYP2E1 = settings: cited from earlier work
[1] = Plasma pharmacokinetics of ATRA in study patients; type: in vivo; settings: human, oral, 22.5 mg/m2
CYP3A4 = settings: liver microsome CYP3A4; cited from earlier work
[2] = cited from earlier work
[3] = Plasma pharmacokinetics of dasatinib in study patients
CYP2C8 = settings: liver microsome CYP2C8; cited from earlier work
[4] = between- and within patient variability

CC1=C(/C=C/C(C)=C/C=C/C(C)=C/C(=O)O)C(C)(C)CCC1 [ATRA, all-trans retinoic acid]
increase of the activity of NAT (NAT): 29% | sensitivity of blasts to ATRA in vitro (non-APL AML blast cells): moderately sensitive | increase of the activity of CYP2E1 (CYP2E1): 83% | AUC(0-inf) [1]: 594 ng·h/mL | AUC(0-t) [1]: 578 ng·h/mL | Cmax [1]: 277 ng/mL | Tmax [1]: 1.6 h | Vd [1]: 101 L | clearance [1]: 737 mL/min | half-life [1]: 0.81 h

Cc1nc(Nc2ncc(C(=O)Nc3c(C)cccc3Cl)s2)cc(N2CCN(CCO)CC2)n1 [Dasatinib]
Ki (CYP3A4): […] | Cmax ([2]; after a 100 mg dose, (SD)): 56 (SD 66) ng/mL | time of Cmax ([2]; after a 100 mg dose): 1.5 h | coefficient of variation of AUC [2, 4]: […] | coefficient of variation of Cmax [2, 4]: […] | increase in dasatinib exposure ([3]; 2 patients, after a month of combination therapy): ~50% | Cmax ([3]; dasatinib 100 mg, with ATRA, mean (SD), N=3): 103 (49) ng/mL | Vd ([3]; human, plasma, oral): […] | clearance ([3]; human, plasma, oral): 6750 mL/min | half-life ([3]; human, plasma, oral): 2.8 h | AUC(0-inf) ([3]; human, plasma, oral, 70 mg): 206 ng·h/mL | AUC(0-t) ([3]; human, plasma, oral, 70 mg): 178 ng·h/mL | Cmax ([3]; human, plasma, oral, 70 mg): 77 ng/mL | Vd ([3]; human, plasma, oral, 70 mg): 2310 L | clearance ([3]; human, plasma, oral, 70 mg): 8170 mL/min | half-life ([3]; human, plasma, oral, 70 mg): 2.9 h | Tmax ([3]; human, plasma, oral, 70 mg, dasatinib 70 mg, with ATRA, mean (SD), N=6): 1.7 h | AUC(0-inf) ([3]; human, plasma, oral, 100 mg): 434 ng·h/mL | AUC(0-t) ([3]; human, plasma, oral, 100 mg): 373 ng·h/mL | Vd ([3]; human, plasma, oral, 100 mg): 1070 L | clearance ([3]; human, plasma, oral, 100 mg): 3920 mL/min | Tmax ([3]; human, plasma, oral, 100 mg, dasatinib 100 mg, with ATRA, mean (SD), N=3): 2.5 h | Ki (CYP2C8): […]
